Results from patent US20250295656A1, “COMBINATION OF LURBINECTEDIN AND IMMUNE CHECKPOINT INHIBITORS” (priority 2020, published 2025).

Tested on: MCA205 tumours
Experiment: Established MCA205 tumours in immunodeficient mice
Format: in vivo
Settings: athymic (nu/nu) mice; 0.18 mg/kg i.v. day 1, 7 and 14
Protocol: Live MCA205 cells were injected subcutaneously (s.c.) into immunocompetent C57BL/6 mice or immunodeficient nu/nu mice as depicted in the scheme in (a) When tumours became palpable, mice were intravenously ([…]). Tumour growth was assessed regularly for the following 30 days. Data is depicted as tumour growth curves (b,d) and overall survival plots (c,e). Data were analyzed with TumGrowth.
In order to assess the capacity of lurbinectedin to stimulate anticancer immunity in a monotherapeutic approach and to convert tumour cells into a therapeutic vaccine we exposed murine fibrosarcoma cells to the drug in vitro (in conditions previously established to induce a sufficient amplitude of cell death) and then injected the dying cancer cells into syngeneic immunocompetent mice. […] Next we evaluated the effect of lurbinectedin on established cancers growing on immunocompetent or immunodeficient mice. […]
Six- to eight-week-old female wild-type C57BL/6 and nu/nu mice were obtained from Envigo France (Huntingdon, UK) and were kept in the animal facility at the Gustave Roussy Campus Cancer in a specific pathogen-free and temperature-controlled environment with 12 h day, 12 h night cycles and received food and water ad libitum. […] Animals were monitored and tumour growth documented regularly until end-points were reached. […]

COc1ccc2[nH]c3c(c2c1)CCN[C@]31CS[C@@H]2c3c(OC(C)=O)c(C)c4c(c3[C@H](COC1=O)N1[C@@H]2[C@H]2c3c(cc(C)c(OC)c3O)C[C@@H]([C@@H]1O)N2C)OCO4 [lurbinectedin]
therapeutic effect (tumour growth, overall survival): lost
